From US11479604B2, “Immunomodulatory peptides and methods for modulating the immune system in a subject” (Recepta Biopharma S.A., priority 2017, dated 2022)
“Also recorded” adds a separate entry of the source.

Assays:
[1] = test system: B16F10-Nex2 melanoma cells; assay: Syngeneic metastatic melanoma model, lung nodule count; assay type: in vivo, C57BL/6 mice
Description: (§1) Male C57BL/6 mice, 6 to 8-week-old were obtained from the Center for Development of Experimental Models (CEDEME), Federal University of Sao Paulo (UNIFESP). For the in vivo metastatic model, C57BL/6 mice received one intravenous (i.v.) injection of 2×10^5 viable B16-F10-Next melanoma cells in 100 μL. […] The control group received 100 μL PBS. Twenty-two days later, mice (minimum n=3 per group) had their lungs harvested, and the number of macroscopic melanotic nodules were counted. The Ethical Committee of Federal University of São Paulo, Project no. 1234, 2011, approved all experiments with animals, according to International guidelines. For the subcutaneous model, mice were injected with 5×10^5 tumor cells suspended in 100 μL of PBS in the right flank via the subcutaneous route. The peptide (300 μg) was solubilized in 10 μL of distilled H2O and 90 μL of PBS and injected per mouse via the intraperitoneal route. The administration of the peptide was performed in 5 alternate days initiating one day after tumor challenge. Tumor longitudinal diameter (D) and transverse diameter (d) were measured every 2 days until the tumor volume reached 3,000 mm3. Animals were sacrificed when the allowed volume was reached. Volume was calculated using the formula v=Dd^2×0.52. Tumor Cell Growth In Vitro and In Vivo Details of the in vitro tumor cell growth, cytotoxicity tests, determination of viable cells and in vivo protection experiments with B16F10 cells in a mouse metastatic model are described in Polonelli et al. (PLoS One. 3(6):e2371, 2008) and Dobroff et al. (Transl. Onc., 3: 204-217, 2010).
6 to 8 Week-old C57BL/6 mice (n=5, per group) were intravenously challenged with 1×10^5 of syngeneic B16F10-Nex2 viable cells in 0.1 mL of RPMI medium without FBS, and treated on the next day with intraperitoneal doses of 300 μg (10 mg/kg) each, of Scr1, Scr2, Scr3 or Scr4 peptide or with the control vehicle (PBS) in alternate days, total of 5 doses. After 14 days, mice were euthanized, and lungs were harvested and assessed for metastatic colonization. The number of metastatic lesions was quantified using a stereo microscope (Nikon, Tokyo). The percentage of the tumor area/total area was also quantified by ImageJ software.
(§2) B16F10-Nex2 tumor cells (2×10^5) in RPMI (100 μl) were injected in both animal groups in the tail veins on day 0. Animals were sacrificed on day 22, or 10 days after the last administration of the peptide, and their lungs were examined for dark melanotic nodules.
C57Bl6 mice were intravenously challenged with 4×10^5 syngeneic B16F10-Nex2 cells in 0.1 ml of RPMI without FBS.
Mice were injected with 5×10^5 B16F10-Nex2 cells i.v. suspended in 100 μl PBS. […] Imiquimod at 50 μg/100 μl was injected i.p. in 3 alternate days; CpG ODN 1585, i.p., in two alternate days; and Poly (I:C), i.p., in two alternate days. After 15 days of tumor challenge, the animals were sacrificed, the lungs were removed and the pulmonary nodules were counted.

human mo-DC = assay: Expression of MIF receptor and co-receptors by human mo-DC; assay type: cell-based
Description: CD44 expression was evaluated by BV-421-labeled monoclonal antibodies and negative controls in the figure refer to unlabeled cells.
Negative controls in the figure refer to unlabeled cells.
The parameters included in the analysis were the expression of HLA-DR (BV-510 labeled mAb), PD-L1 (PE-labeled mAb), CD44 (BV-421-labeled mAb), CD74 (FITC-labeled mAb) and CXCR4 (PE-Cy5-labeled mAb).

CD11c+ cells = assay: TGF-beta1 ELISA of CD11c+ cells from lymphoid organs of melanoma-bearing treated mice; assay type: in vivo, C57Bl6 mice; conditions: 300 μg/dose i.p., day 17
Description: Animals were sacrificed on day 17 and their lungs, cervical and axillary lymph nodes and spleen were processed for examination. Lymph nodes and spleen were macerated separately, DMEM was added and passed through a cell strainer. CD11c+ cells were isolated using mouse CD11c+ beads and magnetic sorting. Cells were suspended in R10 medium and plated in […] at 10^6 cells/well. Cells were incubated for 24 h with or without tumor cell lysate (B16F10 stimulus). The supernatant was used in a TGF-beta1 ELISA test.

[2] = test system: B16F10-Nex2 melanoma cells; assay: Therapeutic adoptive transfer of peptide-stimulated dendritic cells, metastatic melanoma; assay type: in vivo, syngeneic mice; conditions: DCs administered 8 days after melanoma challenge; compared to unstimulated or Rb10A1 treated DCs
Description: DCs were inoculated s.c. in syngeneic mice, 8 days after the melanoma tumor cell challenge. The B16F10-Nex2 cell lysate was not used to prime DCs in this assay to avoid excess tumor antigen derived from tumor cell lysis in vivo, and a tolerogenic response. Lung nodules of melanoma cells injected i.v. and formed after 7 days and after 12 days, from 3 independent experiments were combined to represent colonization clusters for comparison with the therapeutic experiment of FIG. 6C.

B16F10-Nex2 tumor cells = assay: Metastatic melanoma model in immunodeficient mice; assay type: in vivo, NOD/Scid/IL-2R-gamma^null mice; conditions: 250 μg i.p. on days 1-11, lungs on day 22
Description: as §2

[3] = test system: human monocyte-derived dendritic cells (mo-DC); assay: Membrane phenotype of human mo-DC from healthy donors; assay type: cell-based
Description: Peripheral blood mononuclear cells (PBMCs) were isolated by centrifugation over Ficoll-Paque Plus (GE Healthcare). After a 2 h-incubation in plastic 6-well plates, non-adherent cells were removed from culture and adherent cells (monocytes) were cultivated for 7 days in RPMI-1640 culture medium (Gibco, Grand Island, N.Y., USA), supplemented with 10% FCS (Gibco) plus antibiotic-antimycotic (Gibco) and in the presence of GM-CSF (50 ng/ml—Peprotech, Mexico) and IL-4 (50 ng/ml—Peprotech). At day 5 of culture TNF-α (50 ng/ml; Peprotech, Mexico) was added for mo-DC maturation.
Human cells were analyzed in a similar manner, but staining was performed in BSA-PBS, without EDTA. Antibodies against CD11c, CD14, CD80, CD83, CD86, HLA-ABC, HLA-DR, CCR7, PD-L1, conjugated with different fluorochromes and live/dead labeling (Molecular Probes, Oregon, USA) were used. Acquisition was performed in a FACSCanto II analyzer (BD Biosciences) and analyzed with the FlowJo Software X.10.07r2 (Tree Star).

B16F10-Nex2 melanoma = assay: Subcutaneous melanoma model; assay type: in vivo, C57BL/6 mice; conditions: i.p. administration
Description: as §1, with “Tumor Cell Growth In Vitro and In Vivo Details of the in vitro tumor cell growth, cytotoxicity tests, determination of viable cells and in vivo protection experiments with B16F10 cells in a mouse metastatic model are described in Polonelli et al. (PLoS One. 3(6):e2371, 2008) and Dobroff et al. (Transl. Onc., 3: 204-217, 2010).” left out

[CARGETARATFAYWGQGC], NH2 (C-C) [Rb9]
protection in the metastatic model ([1]; 50-100 μg i.p. doses): significant protection
efficiency of administration route for antitumor protection ([1]; i.d. route compared with i.p. and i.v.): mostly efficient
antitumor activity (pulmonary nodules) ([1]; i.p., alone, Rb9 300 μg 5 consecutive days, Imiquimod 50 μg 3 alternate days, CpG and Poly (I:C) two alternate days, 15 days after challenge): Antitumor activities of Rb9 and Imiquimod were the same
antitumor activity of the combination of Rb9 and Imiquimod ([1]; i.p., 15 days after challenge): not additive
number of lung tumor cell nodules (protection) ([1]; immunocompetent C57Bl6 mice, 250 μg i.p. on days 1,3,5,7,9,11, lungs on day 22): clearly protective
best concentrations for protection, dose range per animal ([1]; metastatic model): 200 to 300 µg
CD74^lowCXCR4^low cell subpopulation (tSNE analysis) (human mo-DC; LPS-stimulated human mo-DC): disappearance of a CD74^lowCXCR4^low cell subpopulation
expression of the MIF co-receptor CXCR4 after treatment (human mo-DC; LPS-stimulated human mo-DC, 16.7% without peptide): 28.2%
expression of the MIF receptor CD74 after treatment (human mo-DC; LPS-stimulated human mo-DC, 56.8% without peptide): 87.5%
reduction in CD44 intensity (MFI) (human mo-DC; TGF-beta+IL-10-treated human mo-DC): 20%
frequency of CD44 positive cells after treatment (human mo-DC; TGF-beta+IL-10-treated human mo-DC, 57% without peptide): 52%
TGF-beta in tumor-lysate stimulated CD11c+ cells from the spleen (CD11c+ cells): increased
TGF-beta secreted by lymph node CD11c+ cells (CD11c+ cells; vs vehicle (PBS) control cells stimulated by melanoma lysate): greatly reduced
protection by peptide-stimulated DCs (lung nodules) [2]: significant protection
protection against lung nodules (B16F10-Nex2 tumor cells): No protection
expression of activation markers on immature mo-DC ([3]; 50 μg/mL at day 5, analysis 2 days later): enhanced the expression of activation markers
expression of maturation markers on mo-DC with TNF-alpha ([3]; 50 μg/mL peptide + TNF-alpha 50 ng/mL at day 5): further enhancing the expression of maturation markers
response of subcutaneous growing melanoma to peptide (B16F10-Nex2 melanoma): much more resistant; also recorded: resistant
